According to patent US6846802B2, “Macrocyclic NS3-serine protease inhibitors of hepatitis C virus comprising N-cyclic P2 moieties” (priority 2000, dated 2005):
Starred links: 1 amine or outer side, 2 acyl side, 3 side chain; linkers in the order of their positions; H or OH if unused. Positions of bridges follow the written chain, without caps; N, C: chain ends. Non-standard residues stand in square brackets, D forms with d. Residues, ends and D or L forms follow the SMILES beside them. Tic(7-O(CH2)6CO) = O=C([C@@H]1Cc2ccc(OCCCCCCC(=O)[*:3])cc2CN1[*:1])[*:2]; X1 = CCC[C@H](N[*:1])C(=O)C(=O)[*:2]; Chg = N[C@H](C(=O)O)C1CCCCC1; Phg = N[C@H](C(=O)O)c1ccccc1

Target: HCV serine protease (subtype 1b, 1bNS4A21-32GS-GS NS3-81 I17K) in HeLa/Huh7 cells (Hepatitis C virus genotype 1b, UniProt P26663, I1043K)
Type: cell-based

Row | Compound | Cell-Based Assay [µM]
1 | CCCC(NC(=O)[C@@H]1C[C@@H]2CN1C(=O)[C@H](C1CCCCC1)NC(=O)Cc1cccc(c1)OCCCCO2)C(=O)C(=O)NCC(=O)N[C@H](C(=O)OC(C)(C)C)c1ccccc1 (mixture of isomers) [Compound 5] | 0.6
2 | CCCC(NC(=O)[C@@H]1C[C@@H]2CN1C(=O)[C@H](C1CCCCC1)NC(=O)Cc1cccc(c1)OCCO2)C(=O)C(=O)NCC(=O)N[C@H](C(=O)OC(C)(C)C)c1ccccc1 (mixture of isomers) [Compound 8] | 3.5
3 | CCCC(NC(=O)[C@@H]1Cc2ccc3cc2CN1C(=O)[C@H](C1CCCCC1)NC(=O)CCCCCCO3)C(=O)C(=O)NCC(=O)N[C@H](C(=O)OC(C)(C)C)c1ccccc1 (mixture of isomers) [Compound 58] | 2
4 | CCCC(NC(=O)[C@@H]1C[C@@H]2CN1C(=O)[C@H](C1CCCCC1)NC(=O)Cc1cccc(c1)OCCCO2)C(=O)C(=O)NCC(=O)N[C@H](C(=O)OC(C)(C)C)c1ccccc1 (stereo partly shown) [Compound 2] | 2
5 | CCC[C@@H](NC(=O)[C@@H]1C[C@@H]2CN1C(=O)[C@H](C1CCCCC1)NC(=O)Cc1cccc(c1)OCCCCO2)C(=O)C(=O)NCC(=O)N[C@H](C(=O)N(C)C)c1ccccc1 [Compound 4A] | 2.5
6 | CCC[C@H](NC(=O)[C@@H]1C[C@@H]2CN1C(=O)[C@H](C1CCCCC1)NC(=O)Cc1cccc(c1)OCCCCO2)C(=O)C(=O)NCC(=O)N[C@H](C(=O)N(C)C)c1ccccc1 [Compound 4B] | 1.8
7 | CCC[C@H](NC(=O)[C@@H]1C[C@@H]2CN1C(=O)[C@H](C(C)(C)C)NC(=O)Cc1cccc(c1)OCCCO2)C(=O)C(=O)NCC(=O)N[C@H](C(=O)N(C)C)c1ccccc1 [Compound 12B] | 5.2
8 | CCCC(NC(=O)[C@@H]1C[C@@H]2CN1C(=O)[C@H](C1CCCCC1)NC(=O)CCc1cccc(c1)OCCO2)C(=O)C(=O)NCC(=O)N[C@H](C(=O)OC(C)(C)C)c1ccccc1 (stereo partly shown) [Compound 21] | 2
9 | CCCC(NC(=O)[C@@H]1C[C@@H]2CN1C(=O)[C@H](C1CCCCC1)NC(=O)Cc1cccc(c1)OCCCO2)C(=O)C(=O)NCC(=O)OCc1ccccc1 (stereo partly shown) [Compound 23] | 3
10 | CCC[C@H](NC(=O)[C@@H]1Cc2ccc3cc2CN1C(=O)[C@H](C1CCCCC1)NC(=O)CCCCCCO3)C(=O)C(=O)NCC(=O)N[C@H](C(=O)N(C)C)c1ccccc1 [Compound 57B] ([Chg][Tic(7-O(CH2)6CO)][X1]G[Phg]-NMe2; lactam N-2) | 1.5
